{"source": "patent EP0174162A2", "about": "“Pharmaceutically active dipeptide derivatives” (THE WELLCOME FOUNDATION LIMITED, priority 1984, dated 1986)", "key": {"ACE": {"biological_target": "T1, ACE (Rattus norvegicus, UniProt P47820)", "T1 construct": "in pithed rats; from tissue; host or cells: whole animal (pithed rat)", "T1 sequence (P47820 36-1313)": "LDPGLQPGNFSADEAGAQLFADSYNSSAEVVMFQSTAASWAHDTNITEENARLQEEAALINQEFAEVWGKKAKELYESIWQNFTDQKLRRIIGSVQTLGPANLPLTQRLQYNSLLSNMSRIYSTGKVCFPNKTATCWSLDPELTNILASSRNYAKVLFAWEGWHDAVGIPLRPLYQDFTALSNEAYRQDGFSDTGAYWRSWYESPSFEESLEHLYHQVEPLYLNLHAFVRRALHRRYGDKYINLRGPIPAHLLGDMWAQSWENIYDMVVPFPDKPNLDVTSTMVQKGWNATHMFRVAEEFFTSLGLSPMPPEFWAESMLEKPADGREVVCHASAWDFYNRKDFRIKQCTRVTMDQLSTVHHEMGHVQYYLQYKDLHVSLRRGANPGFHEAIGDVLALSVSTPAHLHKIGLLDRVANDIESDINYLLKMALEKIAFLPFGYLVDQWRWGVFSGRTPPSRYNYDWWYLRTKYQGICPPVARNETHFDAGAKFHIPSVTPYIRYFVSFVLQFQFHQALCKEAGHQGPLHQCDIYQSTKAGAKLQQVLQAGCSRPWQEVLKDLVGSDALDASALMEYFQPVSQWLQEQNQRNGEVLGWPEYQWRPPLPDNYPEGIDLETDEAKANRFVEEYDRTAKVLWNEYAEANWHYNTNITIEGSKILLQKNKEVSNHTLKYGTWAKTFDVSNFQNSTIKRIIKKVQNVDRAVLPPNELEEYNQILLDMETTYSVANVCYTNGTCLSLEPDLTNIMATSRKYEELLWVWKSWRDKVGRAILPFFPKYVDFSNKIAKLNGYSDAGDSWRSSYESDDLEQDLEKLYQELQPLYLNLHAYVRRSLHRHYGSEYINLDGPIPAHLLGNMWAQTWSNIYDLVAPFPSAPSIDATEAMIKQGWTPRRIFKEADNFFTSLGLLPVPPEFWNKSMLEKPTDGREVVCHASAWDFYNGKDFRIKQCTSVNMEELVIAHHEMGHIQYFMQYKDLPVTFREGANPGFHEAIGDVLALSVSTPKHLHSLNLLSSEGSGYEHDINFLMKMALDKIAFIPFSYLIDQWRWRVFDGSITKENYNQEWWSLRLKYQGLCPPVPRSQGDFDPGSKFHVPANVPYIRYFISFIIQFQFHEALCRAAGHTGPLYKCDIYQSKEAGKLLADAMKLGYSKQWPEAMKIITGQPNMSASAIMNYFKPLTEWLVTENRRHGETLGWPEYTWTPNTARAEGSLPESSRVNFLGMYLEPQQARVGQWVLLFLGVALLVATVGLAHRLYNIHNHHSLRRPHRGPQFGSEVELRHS", "assay": "ACE inhibition in vivo: angiotensin I induced pressor responses in pithed rats", "conditions": "doses 1-100 µgkg^-1min displaced angiotensin I dose response curves rightwards", "method": "Doses 1-100 µgkg^-1min effectively displaced in a rightwards fashion, angiotensin I dose response curves."}, "isolated enzyme": {"biological_target": "isolated enzyme (Homo sapiens, UniProt P12821)", "sequence (P12821 30-1306)": "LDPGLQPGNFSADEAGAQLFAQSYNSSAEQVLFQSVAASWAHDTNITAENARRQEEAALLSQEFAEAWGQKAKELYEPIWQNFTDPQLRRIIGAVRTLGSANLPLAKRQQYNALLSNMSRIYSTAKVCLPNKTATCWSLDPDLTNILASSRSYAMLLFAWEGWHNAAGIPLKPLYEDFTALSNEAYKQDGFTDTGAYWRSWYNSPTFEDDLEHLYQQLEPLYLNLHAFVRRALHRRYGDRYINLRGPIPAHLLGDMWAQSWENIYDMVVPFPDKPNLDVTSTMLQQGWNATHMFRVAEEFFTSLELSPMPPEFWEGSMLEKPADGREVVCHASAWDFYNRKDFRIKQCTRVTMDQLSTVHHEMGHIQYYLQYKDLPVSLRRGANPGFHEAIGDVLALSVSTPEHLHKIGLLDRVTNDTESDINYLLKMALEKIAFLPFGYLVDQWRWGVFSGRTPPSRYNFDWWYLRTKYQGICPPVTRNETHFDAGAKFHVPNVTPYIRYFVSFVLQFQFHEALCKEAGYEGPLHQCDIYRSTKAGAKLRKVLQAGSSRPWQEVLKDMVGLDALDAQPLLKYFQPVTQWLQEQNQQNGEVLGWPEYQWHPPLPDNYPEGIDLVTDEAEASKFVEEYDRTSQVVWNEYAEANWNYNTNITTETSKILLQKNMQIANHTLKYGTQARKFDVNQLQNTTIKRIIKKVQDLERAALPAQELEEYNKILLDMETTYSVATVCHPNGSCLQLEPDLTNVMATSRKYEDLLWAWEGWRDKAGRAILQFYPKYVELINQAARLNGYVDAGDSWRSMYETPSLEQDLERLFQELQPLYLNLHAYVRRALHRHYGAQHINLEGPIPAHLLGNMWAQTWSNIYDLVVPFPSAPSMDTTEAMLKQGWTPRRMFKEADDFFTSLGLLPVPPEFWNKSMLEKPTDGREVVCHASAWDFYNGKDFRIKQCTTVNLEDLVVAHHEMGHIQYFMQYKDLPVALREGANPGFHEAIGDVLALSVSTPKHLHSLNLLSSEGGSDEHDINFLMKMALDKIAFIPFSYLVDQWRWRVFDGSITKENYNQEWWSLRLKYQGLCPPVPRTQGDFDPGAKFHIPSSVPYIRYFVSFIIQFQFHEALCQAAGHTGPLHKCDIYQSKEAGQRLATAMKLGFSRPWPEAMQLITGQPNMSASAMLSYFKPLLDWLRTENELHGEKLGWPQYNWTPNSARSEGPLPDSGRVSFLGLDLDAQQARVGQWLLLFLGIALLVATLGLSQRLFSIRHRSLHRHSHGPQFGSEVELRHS", "assay": "ACE inhibition on isolated enzyme", "format": "biochemical", "conditions": "read-out: apparent IC50 on isolated enzyme"}, "[1]": {"tested_on": "isoprenaline induced tachycardia", "assay": "Effect on heart rate: isoprenaline induced tachycardia in pithed rats", "format": "in vivo", "conditions": "doses 10-100 µgkg^-1min^-1 displaced isoprenaline dose response curves rightwards", "method": "Doses 10-100 µgkg^-1min^-1 effectively displaced in a rightwards fashion, isoprenaline dose response curves."}, "[2]": {"tested_on": "salt depleted conscious beagle dogs", "assay": "Antihypertensive activity in salt depleted conscious beagle dogs", "format": "in vivo", "conditions": "intravenous administration, doses in the range 1-3 mgkg^-1"}, "[3]": {"tested_on": "uninephrectomised, contralateral renal stenotic conscious beagle dogs", "assay": "Antihypertensive activity in uninephrectomised, contralateral renal stenotic conscious beagle dogs", "format": "in vivo", "conditions": "doses in the range 1-3 mgkg^-1 intravenously"}}}
{"smiles": "CC(C)NCC(O)COc1cccc2[nH]c(C(=O)NCCCC[C@H](NC(C)C(=O)N3CCC[C@H]3C(=O)O)C(=O)O)cc12", "note": "(some centres unmarked) [Example 1]", "values": [{"measurement": "inhibition of angiotensin I induced pressor responses", "setting": "ACE", "value": "inhibit in a dose dependent fashion"}, {"measurement": "IC50", "setting": "isolated enzyme", "value": 11, "unit": "nM"}, {"measurement": "inhibition of isoprenaline induced tachycardia", "setting": "[1]", "value": "inhibit in a dose dependent fashion"}, {"measurement": "blood pressure", "setting": "[2]", "value": "reduce blood pressure"}, {"measurement": "hypotensive activity", "setting": "[3]", "value": "marked hypotensive activity"}]}
